US9102697B2, “Trioxacarcins and uses thereof” (President and Fellows of Harvard College, priority 2010, dated 2015)
Entries after “also recorded” stand apart in the source; their conditions may differ.

Assays:
[1] = system: self-complementary duplex 12-mer d(AATTACGTAATT) (SEQ ID NO: 1); test: DNA alkylation detected by non-denaturing DNA-gel electrophoresis with in-gel fluorescence; assay type: biochemical; conditions: for alkylation / modification of the DNA duplex: 12-mer duplex with single central G residue, gel in-gel fluorescence and LC-MS; for fluorescent complex with the oligonucleotide detected: two-hour reaction at 23 °C
Excerpt: Two independent techniques were used to evaluate the reactivity of the synthesized trioxacarcins towards d(AATTACGTAATT) (SEQ ID NO: 1). The first technique involved detecting alkylated DNA oligonucleotides by in-gel fluorescence with non-denaturing DNA-gel electrophoresis. The second technique involved detecting alkylated DNA oligonucleotides using a liquid chromatography-mass spectrometry method.
We began the DNA-alkylation studies by evaluating the activity of DC-45-A2 towards the self-complementary 12-mer d(AATTACGTAATT) (SEQ ID NO: 1) in pH 7 phosphate buffer at different concentrations (FIG. 10). The concentration of the oligonucleotide was held constant at 100 μM while DC-45-A2 was used at five different concentrations ranging from 1 μM to 1000 μM (lanes 4-8) in five separate reactions. At the highest concentrations of DC-45-A2 (500 μM and 1000 μM), a second and distinct fluorescent complex was observed by in-gel fluorescence. […] Chem. 390, 1139 (2008). After incubation for 3 h at 23° C., aliquots of the reactions mixtures were loaded onto a 20% crosslinked polyacrylamide gel. After electrolution, the gels were visualized using an alpha imager, first by irradiating the gel at 302 nm to image fluorescent species in the gel (in-gel fluorescence) and then by treating the gel with ethidium bromide and again irradiating at 302 nm to image fluorescent species in the treated gel. The fluorescence quantum efficiency of an ethidium bromide molecule increases 20- to 25-fold upon intercalation into duplex DNA: J.-B. Le Pecq, C. Paoletti, Anal. Biochem. 17, 100 (1966).
Next, we compared the reactivity of DC-45-A2 to both iso-DC-45-A2 and dideoxy-DC-45-A2 towards the same oligonucleotide in three separate alkylation experiments (FIG. 11).
Having noted the apparent differential reactivity between DC-45-A2 and dideoxy-DC-45-A2, we performed an experiment to visualize the formation of the fluorescent complex at different reaction times (FIG. 12). The reaction of the oligonucleotide with DC-45-A2 reached an approximate maximum of fluorescence intensity between 5 and 10 h, while the reaction of the oligonucleotide with dideoxy-DC-45-A2 reached a maximum fluorescence intensity between 1 and 4 h.
Seven vials (designated vials 1 and vials 3-8) were loaded with alkylation buffer (86.7 μL, see above for preparation). A solution of duplex oligonucleotide d(AATTACGTAATT) (SEQ ID NO: 1) (1.07 mM [concentration of the DNA duplex] in alkylation buffer [see above for preparation], 9.34 μL, 10 nmol, 1 equiv) was added to vials 3-8. Dimethylsulfoxide was added in the following amounts to vials 3-7 (vial 3, 4.00 μL; vial 4, 3.80 μL; vial 5, 3.00 μL; vials 6-7, 2.00 μL). Solutions of DC-45-A2 in dimethylsulfoxide was added to vial 1 and vials 4-8 at the following concentrations and amounts (vial 1, 25 mM solution of DC-45-A2, 4.00 μL; vial 4, 5 mM solution of DC-45-A2, 0.20 μL; vial 5, 5 mM solution of DC-45-A2, 1.00 μL; vial 6, 5 mM solution of D-45-A2, 2.00 μL; vial 7, 25 mM solution of DC-45-A2, 2.00 μL; vial 8, 25 mM solution of DC-45-A2, 4.00 μL). The samples were vortexed, then rotated end-over-end at 23° C. After 2 h, four vials (designated vials 9-12) were prepared containing the following (vial 9, an aliquot of the solution from vial 3 [18.0 μL], DNase I enzyme solution [2.00 μL, Invitrogen 18047-019]; vial 10, an aliquot of the solution from vial 3 [20.0 μL]; vial 11, an aliquot of the solution from vial 5 [18.0 μL], DNase I enzyme [2.00 μL, Invitrogen 18047-019]; vial 12, an aliquot of the solution from vial 5 [20.0 μL]. Vials 9 and 11 were rotated end-over-end at 23° C. for 1 h. Vials 10 and 12 were heated at 95° C. for 15 min. To a final vial (designated vial 2) was added a 10-bp DNA ladder (4 μL, Invitrogen 10821-015) and alkylation buffer (16.0 μL). Vials 2 and 9-12 were diluted with loading buffer (5.00 μL, see above for preparation). A 20-μL aliquot was removed from vials 1 and 3-8. […]

H460 cells = test: Cell proliferation assay (MTS/PMS), H460 cells; assay type: cell-based; conditions: H460 cell line (printed H4609 in b565); 72 h at 37 °C
Method: (§1) Cell Culture. H460 cells and HeLa S3 cells were purchased from American Type Culture Collection (ATCC). H460 cells were maintained in RPMI-1640 medium supplemented with 10% fetal bovine serum (FBS). HeLa S3 cells were maintained in Dulbecco's Modified Eagle's Medium supplemented with 10% fetal bovine serum (FBS).
(§2) Cell Proliferation Assay. A solution of H460 or HeLa S3 cells (3000 cells/well) in growth medium was seeded onto a 96-well plate. The 96-well plate was incubated for 24 h at 37° C. Stock solutions of each compound were serially diluted and administrated to cells to achieve final concentrations of 38 nM to 83 μM (DC-45-A2 and iso-DC-45-A2) or 3.4 nM to 7.5 μM (dideoxy-DC-45-A2). After incubating at 37° C. for 72 h, 20 μL of MTS/PMS solution (Promega CellTiter 96® Aqueous Non-Radioactive Cell Proliferation Assay) was added to each well. After incubating at 37° C. for 3.5 h, the absorbance at 490 nm was recorded using a microplate reader (SpectraMax PLUS384) as a measure of viable cells. Percent growth inhibition was calculated for each well based upon the following formula: percent growth inhibition=100×(C−T)/C, where T is the absorbance of the well containing the test compound minus the average absorbance of wells containing media alone, and C is the average absorbance of wells containing vehicle control-treated cells minus the average absorbance of wells containing media alone. […]

HeLa S3 cells = test: Cell proliferation assay (MTS/PMS), HeLa S3 cells; assay type: cell-based; conditions: HeLa cell line; 72 h at 37 °C
Method: as §1, §2

[2] = system: self-complementary duplex 12-mer d(AATTACGTAATT) (SEQ ID NO: 1); test: DNA alkylation detected by non-denaturing DNA-gel electrophoresis with in-gel fluorescence; assay type: biochemical; conditions: oligonucleotide 100 μM; at the lowest concentration of DC-45-A2 (printed 1 mM); 3 h at 23 °C
Water solubility = conditions: attenuated by saturation with sodium chloride

Row | Compound | alkylation / modification of the DNA duplex ([1]; 23 °C) | rate of alkylation of the DNA duplex ([1]; 23 °C) | efficiency of alkylation of the DNA duplex ([1]; 23 °C, compared with DC-45-A2) | signal intensity of the fluorescent complex ([1]; compound and DNA 100 μM, 2 h at 23 °C, compared with DC-45-A2) | fluorescent complex with the oligonucleotide detected ([1]; compound and DNA 100 μM) | alkylation / modification of the DNA duplex ([1]; 23 °C, listed as Iso-DC-45-A2) | IC50, growth inhibition (H460 cells) | IC50, growth inhibition (HeLa S3 cells) | fluorescent DC-45-A2-DNA complex, in-gel fluorescence prior to ethidium bromide staining [2] | alkylation / modification of the DNA duplex ([1]; 23 °C, listed as 1) | stability of the fluorescent DNA complex to heating ([1]; reaction mixture heated at 95 °C for 15 min) | water solubility (Water solubility)
1 | Dideoxy-DC-45-A2 | found to modify | within minutes | apparently greater efficiency | more intense signal | clearly detected |  |  |  |  |  |  | 
2 | COc1c2c(c(O)c3c4c(c(C)cc13)[C@H]1O[C@]3(C(OC)OC)O[C@H]1[C@](O)(O4)[C@@]31CO1)C(=O)[C@@H](O)C[C@@H]2O [iso-DC-45-A2, 11,12,13,15-tetraepi-DC-45-A2] | unreactive |  |  |  |  | not observed to modify | inactive | inactive |  |  |  | 
3 | DC-45-A2 | found to modify | half life of hours |  |  | clearly detected |  | micromolar; also recorded: submicromolar | micromolar; also recorded: submicromolar | clearly observed | readily alkylated | destroyed | appreciable water solubility
